Laboratory results reported in ChEMBL document CHEMBL5724914, “Linking interpersonal differences in gut microbiota composition and drug biotransformation activity” (2024).

Tests used:
[1] = (§1) The drug is tested on WLS-073 corresponding to human gut metagenome with ENA study accession number: PRJEB37062 and ENA sample accession number: ERS12561749 for biotransformation under anaerobic condition. The drug concentrations were measured over 9 timepoints collected between 0 and 24 hours of incubation by liquid-chromatography-coupled mass spectrometry (LC–MS); settings: 2 µM
[2] = as §1, with “WLS-006” for “WLS-073”, “ERS12561741” for “ERS12561749”; settings: 2 µM
[3] = as §1, with “Z-005” for “WLS-073”, “to” for “to human gut”, “ERS12561805” for “ERS12561749”; settings: 2 µM
[4] = human gut metagenome, 24 h, 2 µM
[5] = human gut metagenome, 24 h, 2 µM; remark: listed apart in the source
[6] = human gut metagenome, 24 h, 2 µM; remark: listed apart in the source
[7] = human gut metagenome, 24 h, 2 µM; remark: listed apart in the source
[8] = human gut metagenome, 24 h, 2 µM; remark: listed apart in the source
[9] = as §1, with “Z-018” for “WLS-073”, “pig” for “human”, “ERS12561817” for “ERS12561749”; settings: 2 µM
[10] = as §1, with “Z-017” for “WLS-073”, “mouse” for “human”, “ERS12561816” for “ERS12561749”; settings: 2 µM
[11] = as §1, with “Z-024” for “WLS-073”, “pig” for “human”, “ERS12561823” for “ERS12561749”; settings: 2 µM
[12] = human gut metagenome, 24 h, 2 µM; remark: listed apart in the source
[13] = as §1, with “WLS-086” for “WLS-073”, “ERS12561752” for “ERS12561749”; settings: 2 µM
[14] = as §1, with “Z-009” for “WLS-073”, “pig” for “human”, “ERS12561809” for “ERS12561749”; settings: 2 µM
[15] = human gut metagenome, 24 h, 2 µM; remark: listed apart in the source
[16] = as §1, with “Z-025” for “WLS-073”, “rabbit” for “human”, “ERS12561824” for “ERS12561749”; settings: 2 µM
[17] = as §1, with “Z-028” for “WLS-073”, “mouse” for “human”, “ERS12561827” for “ERS12561749”; settings: 2 µM
[18] = human gut metagenome, 24 h, 2 µM; remark: listed apart in the source
[19] = human gut metagenome, 24 h, 2 µM; remark: listed apart in the source
[20] = as §1, with “WLS-082” for “WLS-073”, “ERS12561751” for “ERS12561749”; settings: 2 µM
Note: call rule not given here.

Row | SMILES | Bacterial Biotransformation [1] | Bacterial Biotransformation [2] | Bacterial Biotransformation [3] | Bacterial Biotransformation [4] | Bacterial Biotransformation [5] | Bacterial Biotransformation [6] | Bacterial Biotransformation [7] | Bacterial Biotransformation [8] | Bacterial Biotransformation [9] | Bacterial Biotransformation [10] | Bacterial Biotransformation [11] | Bacterial Biotransformation [12] | Bacterial Biotransformation [13] | Bacterial Biotransformation [14] | Bacterial Biotransformation [15] | Bacterial Biotransformation [16] | Bacterial Biotransformation [17] | Bacterial Biotransformation [18] | Bacterial Biotransformation [19] | Bacterial Biotransformation [20]
1 | O=C1CN2Cc3c(ccc(Cl)c3Cl)N=C2N1 [ANAGRELIDE] | Compound NOT metabolized | Compound metabolized | Compound NOT metabolized | Compound NOT metabolized | Compound NOT metabolized | Compound metabolized | Compound NOT metabolized | Compound NOT metabolized | Compound NOT metabolized | Compound NOT metabolized | Compound metabolized | Compound NOT metabolized | Compound metabolized | Compound NOT metabolized | Compound NOT metabolized | Compound NOT metabolized | Compound NOT metabolized | Compound NOT metabolized | Compound NOT metabolized | Compound metabolized
2 | CN(C)C(=O)Oc1cc(OC(=O)N(C)C)cc(C(O)CNC(C)(C)C)c1 (stereo not given) [BAMBUTEROL] | Compound NOT metabolized | Compound metabolized | Compound NOT metabolized | Compound metabolized | Compound NOT metabolized | Compound NOT metabolized | Compound metabolized | Compound NOT metabolized | Compound NOT metabolized | Compound NOT metabolized | Compound NOT metabolized | Compound metabolized | Compound metabolized | Compound metabolized | Compound NOT metabolized | Compound metabolized | Compound NOT metabolized | Compound metabolized | Compound NOT metabolized | Compound NOT metabolized
3 | CC(NC(C)(C)C)C(=O)c1cccc(Cl)c1 (stereo not given) [BUPROPION] | Compound NOT metabolized | Compound metabolized | Compound NOT metabolized | Compound NOT metabolized | Compound NOT metabolized | Compound NOT metabolized | Compound NOT metabolized | Compound NOT metabolized | Compound metabolized | Compound NOT metabolized | Compound NOT metabolized | Compound NOT metabolized | Compound NOT metabolized | Compound NOT metabolized | Compound NOT metabolized | Compound NOT metabolized | Compound NOT metabolized | Compound NOT metabolized | Compound NOT metabolized | Compound NOT metabolized
4 | O=C1CC2(CCCC2)CC(=O)N1CCCCN1CCN(c2ncccn2)CC1 [BUSPIRONE] | Compound NOT metabolized | Compound NOT metabolized | Compound NOT metabolized | Compound NOT metabolized | Compound metabolized | Compound metabolized | Compound NOT metabolized | Compound metabolized | Compound NOT metabolized | Compound NOT metabolized | Compound NOT metabolized | Compound NOT metabolized | Compound metabolized | Compound NOT metabolized | Compound metabolized | Compound NOT metabolized | Compound NOT metabolized | Compound metabolized | Compound NOT metabolized | Compound NOT metabolized
5 | CCCC(C)(COC(N)=O)COC(=O)NC(C)C (stereo not given) [CARISOPRODOL] | Compound metabolized | Compound metabolized | Compound metabolized | Compound metabolized | Compound metabolized | Compound metabolized | Compound metabolized | Compound metabolized | Compound metabolized | Compound NOT metabolized | Compound metabolized | Compound metabolized | Compound metabolized | Compound metabolized | Compound metabolized | Compound metabolized | Compound metabolized | Compound metabolized | Compound metabolized | Compound metabolized
6 | COc1ccccc1OCCNCC(O)COc1cccc2[nH]c3ccccc3c12 (stereo not given) [CARVEDILOL] | Compound metabolized | Compound metabolized | Compound NOT metabolized | Compound metabolized | Compound NOT metabolized | Compound metabolized | Compound metabolized | Compound NOT metabolized | Compound NOT metabolized | Compound NOT metabolized | Compound metabolized | Compound NOT metabolized | Compound metabolized | Compound NOT metabolized | Compound metabolized | Compound metabolized | Compound NOT metabolized | Compound metabolized | Compound NOT metabolized | Compound metabolized
7 | CC(C)(C)NCC(O)c1cc(Cl)c(N)c(Cl)c1 (stereo not given) [CLENBUTEROL] | Compound NOT metabolized | Compound NOT metabolized | Compound NOT metabolized | Compound NOT metabolized | Compound NOT metabolized | Compound NOT metabolized | Compound NOT metabolized | Compound NOT metabolized | Compound NOT metabolized | Compound NOT metabolized | Compound NOT metabolized | Compound NOT metabolized | Compound NOT metabolized | Compound NOT metabolized | Compound NOT metabolized | Compound NOT metabolized | Compound NOT metabolized | Compound NOT metabolized | Compound NOT metabolized | Compound NOT metabolized
8 | C[N+]12CCC(CC1)C(OC(=O)C(O)(c1ccccc1)c1ccccc1)C2.[Br-] (stereo not given) [CLIDINIUM BROMIDE] | Compound NOT metabolized | Compound NOT metabolized | Compound NOT metabolized | Compound NOT metabolized | Compound NOT metabolized | Compound metabolized | Compound NOT metabolized | Compound NOT metabolized | Compound metabolized | Compound NOT metabolized | Compound metabolized | Compound NOT metabolized | Compound metabolized | Compound metabolized | Compound metabolized | Compound NOT metabolized | Compound NOT metabolized | Compound NOT metabolized | Compound NOT metabolized | Compound NOT metabolized
